Test results reported in US5708063A, “Photochromic compound” (Tokuyama Corporation, priority 1993, dated 1998).
One block for each compound: values may come before it.

Tests used:
Assay type in all cases: physicochemical
[1] = Durability of poly(allyl diglycol carbonate) lens impregnated with the compound in silicone oil, as in Example 9 (Example 10); set-up: Initial color density: unit not given here; settings: silicone oil impregnation
Method: (§1) T1/2 is defined as the time required for the color density to decrease to half of its initial value when the film is exposed to the fadeometer.
The solution was impregnated in the surface of a lens composed of poly(allyl diglycol carbonate) at 200° C. for 1 hour. The concentration of the solution was adjusted to 1.0×10^-4 mole/g.

[2] = Visual color tone of polymerized plate under sunlight (Example 15); settings: 0.05 part
Method: (§2) […] The mixed solution was injected into a mold which was made of a glass plate and a gasket formed of an ethylene-vinyl acetate copolymer, and was heated to a temperature of 35° to 90° C. in an air oven over a period of 20 hours for polymerization. After the polymerization was over, the polymer was withdrawn from the glass plate of the mold.
(§3) The resulting polymerized plate was irradiated with sunlight for 10 minutes. On this occasion, a color tone of said plate was visually observed. In this polymerized plate, the fulgide or fulgimide compound and the chromene compound were measured for fatigue life in the same manner as in Example 9. Further, a color tone of the polymerized plate was visually observed in T1/2 (hrs.) of the fulgide or fulgimide compound.

[3] = Fatigue life of fulgide/fulgimide and chromene compound in polymerized plate with ultraviolet light stabilizer (Example 16)
[4] = Fatigue life of fulgide/fulgimide and chromene compound in polymerized methacrylate plate (Example 15); settings: for T1/2 of fulgide or fulgimide compound: 0.05 part
Method: as §2, §3

[5] = Photochromic PMMA cast film: initial coloration density, maximum absorption wavelength and fatigue life in xenon fadeometer (Example 9); settings: PMMA cast film 0.1 mm; for λmax / Initial color density: xenon light; for Initial color density / T1/2: no stabilizer; for T1/2: time for color density to fall to half of initial value, xenon fadeometer;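 on Initial color density: initial color density is an absorbance value so the % unit is wrong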
Text: The thickness of the cast film was adjusted to 0.1 mm.
as §1

[6] = Fatigue life of photochromic PMMA cast film with ultraviolet stabilizer, xenon fadeometer (Examples 11-14); settings: PMMA film, UV stabilizer Cyasorb UV1084, 0.2 part
Method: One hundred parts by weight of benzene, 10 parts by weight of poly(methyl methacrylate), 0.2 part […] The solution was cast on a slide glass (11.2×3.7 cm) to form a cast film having a thickness of 0.1 mm.
The fatigue life of photochromic film was measured as in Example 9 by a xenon long-life fadeometer (FAL-25AX-HC made by Suga Testing Instrument Co., Ltd.).
Example 11 was repeated except that the fulgimide compound obtained in Example 2 was used instead of fulgimide compound used in Example 11.
Example 11 was repeated except that the fulgimide or fulgide compounds shown in Table 28 were used instead of the fulgimide compounds in Example 11, and Cyasorb UV1084 was used as the ultraviolet stabilizer.

[7] = with chromenes 1/2 (0.015/0.015 part)

Compound: CC1CC1C1=C2C(=O)N(CCCCCc3cccc4ccccc34)C(=O)C2C2(c3sc4c(c31)CCCC4)C1CC3CC(C1)CC2C3 (stereo not drawn) [(48)]
λmax [1]: 590 nm | Initial color density ([1]; 1.0×10^-4 mole/g): 0.67 | T1/2 ([1]; xenon fadeometer): 65 h | Color tone in T0 ([2]; with chromene 1 (0.04 part)): gray | Color tone in T1/2 ([2]; with chromene 1 (0.04 part)): gray | Color tone in T0 [2, 7]: gray | Color tone in T1/2 [2, 7]: gray | T1/2 of fulgide or fulgimide compound ([3]; 0.05 part, chromene 1 (0.04), Spinuvex A-36 (0.6)): 430 h | T1/2 of fulgide or fulgimide compound ([3]; 0.05 part, chromene 2 (0.05), Cyasorb UV 1084 (0.6)): 420 h | T1/2 of fulgide or fulgimide compound ([3]; 0.05 part, chromene 3 (0.1), Tinuvin 765 (0.7)): 450 h | T1/2 of fulgide or fulgimide compound ([3]; 0.05 part, chromene 4 (0.1), UV Check AM101 (0.4)): 440 h | T1/2 of fulgide or fulgimide compound ([3]; 0.05 part, chromene 5 (0.05), Tinuvin 622 (0.7)): 450 h | T1/2 of fulgide or fulgimide compound ([4]; with chromene 1 (0.04 part)): 154 h | T1/2 of fulgide or fulgimide compound [4, 7]: 154 h | λmax [5]: 588 nm | Initial color density [5]: 0.75% | T1/2 [5]: 62 h

Compound: CCCCCCCCOc1cccc2c3c(ccc12)C=CC(C)(C)O3 [Chromene compound 5, 2,2-dimethyl-7-octoxy[2H]benzo[h]chromene]
T1/2 of chromene compound ([3]; 0.05 part, fulgimide 2 (0.05), Mark LA-87 (0.5)): 450 h | T1/2 of chromene compound ([3]; 0.05 part, fulgimide 48 (0.05), Tinuvin 622 (0.7)): 430 h | T1/2 of chromene compound ([4]; 0.03 part, with fulgide/fulgimide 17 (0.05 part)): 120 h | T1/2 of chromene compound ([4]; 0.04 part, with fulgide/fulgimide 15 (0.05 part)): 192 h | T1/2 of chromene compound ([4]; 0.07 part, with fulgide/fulgimide 46 (0.05 part)): 155 h

Compound: CCC(C(=O)C[N+](=O)[O-])N1C(=O)C2=C(C3CC3)c3cc(OC)cc(OC)c3C3(C4CC5CC(C4)CC3C5)C2C1=O (stereo not drawn) [(45)]
Color tone in T0 ([2]; with chromene 2 (0.03 part)): gray | Color tone in T1/2 ([2]; with chromene 2 (0.03 part)): light gray | T1/2 [6]: 265 h | T1/2 of fulgide or fulgimide compound ([4]; with chromene 2 (0.03 part)): 160 h | λmax [5]: 579 nm | Initial color density [5]: 0.54% | T1/2 [5]: 65 h

Compound: CCCCC1CC1C1=C2C(=O)N(C(C)(C)C#N)C(=O)C2C2(c3c(OC)cc(OC)cc31)C1CCC2(CCCC)CC1 (stereo not drawn) [(17)]
Color tone in T0 ([2]; with chromene 5 (0.03 part)): gray | Color tone in T1/2 ([2]; with chromene 5 (0.03 part)): gray | T1/2 [6]: 230 h | T1/2 of fulgide or fulgimide compound ([4]; with chromene 5 (0.03 part)): 146 h | λmax [5]: 568 nm | Initial color density [5]: 0.58% | T1/2 [5]: 58 h

T1/2 of chromene compound ([3]; 0.01 part, fulgimide 2 (0.05), Cyasorb 944 (0.5)): 400 h | T1/2 of chromene compound ([3]; 0.1 part, fulgimide 48 (0.05), Tinuvin 765 (0.7)): 420 h | T1/2 of chromene compound ([4]; 0.08 part, with fulgide/fulgimide 10 (0.05 part)): 150 h | T1/2 of chromene compound ([4]; 0.08 part, with fulgide/fulgimide 44 (0.05 part)): 160 h
Compound: CC1=CC2(Oc3ccc4ccccc4c31)C1CCCC2CCC1 (stereo not drawn) [Chromene compound 3, 4'-methylspiro[bicyclo[3.3.1]nonane-9,2'-[2H]benzo[f]chromene]]

T1/2 of chromene compound ([3]; 0.01 part, fulgimide 2 (0.05), LS-2626 (0.4)): 480 h | T1/2 of chromene compound ([3]; 0.1 part, fulgimide 48 (0.05), UV Check AM101 (0.4)): 430 h | T1/2 of chromene compound ([4]; 0.04 part, with fulgide/fulgimide 24 (0.05 part)): 152 h | T1/2 of chromene compound ([4]; 0.08 part, with fulgide/fulgimide 12 (0.05 part)): 180 h
Compound: CC1=Cc2c(ccc3ccccc23)OC12CC1CCC2C1 (stereo not drawn) [Chromene compound 4, 3'-methylspiro[norbornane-2,2'-[2H]benzo-[f]chromene]]

Color tone in T0 ([2]; with chromene 4 (0.08 part)): gray | Color tone in T1/2 ([2]; with chromene 4 (0.08 part)): gray | T1/2 [6]: 320 h | T1/2 of fulgide or fulgimide compound ([4]; with chromene 4 (0.08 part)): 184 h | λmax [5]: 581 nm | Initial color density [5]: 0.78% | T1/2 [5]: 77 h
Compound: COC(=O)C(C)N1C(=O)C2=C(C3CC3(C)C)c3ccoc3C3(C4CCC3(Cl)CC4)C2C1=O (stereo not drawn) [(12)]

T1/2 of chromene compound ([3]; 0.03 part, fulgimide 2 (0.05), Irgastab 2002 (0.5)): 480 h | T1/2 of chromene compound ([3]; 0.04 part, fulgimide 48 (0.05), Spinuvex A-36 (0.6)): 430 h | T1/2 of chromene compound ([4]; 0.03 part, with fulgide/fulgimide 8 (0.05 part)): 170 h | T1/2 of chromene compound ([4]; 0.03 part, with fulgide/fulgimide 30 (0.05 part)): 170 h | T1/2 of chromene compound ([4]; 0.04 part chromene 1, with fulgide/fulgimide 2/48 (0.025/0.025 part)): 190 h | T1/2 of chromene compound ([4]; 0.04 part, with fulgide/fulgimide 48 (0.05 part)): 148 h
Compound: C1=CC2(CC3CCC2C3)Oc2c1ccc1ccccc21 (stereo not drawn) [Chromene compound 1, Spiro(norbornane-2,2'-(2H)benzo(h)-chromene)]

Compound: 7'-methoxyspiro(bicyclo[3.3.1]nonane-9,2'-(2H)benzo(f)-chromene) [Chromene compound 2]
T1/2 of chromene compound ([3]; 0.04 part, fulgimide 2 (0.05), Tiniuvin 765 (0.1)): 340 h | T1/2 of chromene compound ([3]; 0.04 part, fulgimide 2 (0.05), Tinuvin 765 (0.2)): 350 h | T1/2 of chromene compound ([3]; 0.04 part, fulgimide 2 (0.05), Tinuvin 765 (0.5)): 400 h | T1/2 of chromene compound ([3]; 0.04 part, fulgimide 2 (0.05), Tinuvin 765 (1.0)): 480 h | T1/2 of chromene compound ([3]; 0.04 part, fulgimide 2 (0.05), Tinuvin 765 (2.0)): 500 h | T1/2 of chromene compound ([3]; 0.04 part, fulgimide 2 (0.05), Tinuvin 765 (10.0)): 520 h | T1/2 of chromene compound ([3]; 0.04 part, fulgimide 2 (0.05), UV Chek AM105 (0.7)): 440 h | T1/2 of chromene compound ([3]; 0.05 part, fulgimide 2 (0.05), LA-63 (0.5)): 480 h | T1/2 of chromene compound ([3]; 0.05 part, fulgimide 48 (0.05), Cyasorb UV 1084 (0.6)): 430 h | T1/2 of chromene compound ([4]; 0.03 part, with fulgide/fulgimide 2 (0.05 part)): 210 h | T1/2 of chromene compound ([4]; 0.03 part, with fulgide/fulgimide 21 (0.05 part)): 170 h | T1/2 of chromene compound ([4]; 0.03 part, with fulgide/fulgimide 36 (0.05 part)): 190 h | T1/2 of chromene compound ([4]; 0.03 part, with fulgide/fulgimide 45 (0.05 part)): 175 h | T1/2 of chromene compound ([4]; 0.03 part, with fulgide/fulgimide 54 (0.05 part)): 165 h | T1/2 of chromene compound ([4]; 0.04 part chromene 2, with fulgide/fulgimide 2/48 (0.025/0.025 part)): 190 h
